{
  "source": "patent US12054475B2",
  "about": "“Substituted heterocycles as aldehyde dehydrogenase inhibitors” (KayoThera Inc., priority 2021, dated 2024)",
  "key": {"[1]": {"biological_target": "T1, hALDH1a2 (Homo sapiens (Human), UniProt O94788)", "T1 sequence (O94788 whole entry)": "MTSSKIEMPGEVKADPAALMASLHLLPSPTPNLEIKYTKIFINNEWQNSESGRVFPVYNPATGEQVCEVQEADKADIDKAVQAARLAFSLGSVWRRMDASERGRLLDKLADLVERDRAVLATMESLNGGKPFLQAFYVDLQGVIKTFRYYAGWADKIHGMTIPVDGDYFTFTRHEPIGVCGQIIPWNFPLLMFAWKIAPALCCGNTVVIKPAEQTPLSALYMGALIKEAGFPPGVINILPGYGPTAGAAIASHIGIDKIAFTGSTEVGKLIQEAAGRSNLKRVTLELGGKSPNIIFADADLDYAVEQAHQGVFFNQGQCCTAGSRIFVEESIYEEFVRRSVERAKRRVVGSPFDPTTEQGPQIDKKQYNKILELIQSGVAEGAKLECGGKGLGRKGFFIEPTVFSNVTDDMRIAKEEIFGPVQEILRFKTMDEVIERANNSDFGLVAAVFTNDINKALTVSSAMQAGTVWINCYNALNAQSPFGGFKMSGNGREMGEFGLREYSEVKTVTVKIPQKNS", "assay": "Cell based assay: STRA6 mRNA by q-rtPCR in MCF7 cells expressing ALDH1a2", "details": "20 hours incubation, read-out: IC50 (ALDH1a2), STRA6 mRNA levels", "experimental": "(§1) MCF7 cells were stably transduced with lentiviral vectors encoding human ALDH1a1, ALDH1a2 or ALDH1a3 or Vector control and selected by puromycin to establish stable cultures that were verified for overexpression by western blotting and Aldefluor activity. Cells were plated into 6 cm plates in regular DMEM media supplement with […]. At the beginning of the assay, cells were washed with PBS for 5 minutes followed by addition of compound solvated into DMEM media with 10% FBS or corresponding DMSO controls, maintaining DMSO at a constant concentration of 0.1% across all samples. Following 20 hours of incubation at 37 C, cells were lysed and RNA was extracted using a Qiagen RNAeasy kit. cDNA was synthesized using the Superscript IV kit and retinoid activation was measured using STRA6 mRNA levels as a proxy as measured by q-rtPCR."}, "[2]": {"biological_target": "T1, hALDH1a2", "assay": "Aldh1a2 enzyme inhibition assay (recombinant enzyme, resorufin fluorescence)", "type": "biochemical"}, "[3]": {"biological_target": "hALDH1a3 (Homo sapiens (Human), UniProt P47895)", "sequence (P47895 whole entry)": "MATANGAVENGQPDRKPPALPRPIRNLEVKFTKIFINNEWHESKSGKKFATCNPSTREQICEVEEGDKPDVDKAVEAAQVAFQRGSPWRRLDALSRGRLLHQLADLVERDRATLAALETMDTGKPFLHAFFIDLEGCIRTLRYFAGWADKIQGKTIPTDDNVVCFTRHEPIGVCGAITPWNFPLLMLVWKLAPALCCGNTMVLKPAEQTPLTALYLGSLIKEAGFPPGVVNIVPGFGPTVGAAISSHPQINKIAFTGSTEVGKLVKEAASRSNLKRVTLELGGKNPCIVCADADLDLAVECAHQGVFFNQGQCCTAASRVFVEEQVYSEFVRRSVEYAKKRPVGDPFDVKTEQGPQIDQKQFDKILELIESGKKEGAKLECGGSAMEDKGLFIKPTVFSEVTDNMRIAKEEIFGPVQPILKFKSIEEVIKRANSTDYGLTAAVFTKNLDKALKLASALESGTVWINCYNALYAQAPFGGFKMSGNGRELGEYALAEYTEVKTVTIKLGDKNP", "assay": "Cell based assay: STRA6 mRNA by q-rtPCR in MCF7 cells expressing ALDH1a3", "details": "20 hours incubation, read-out: IC50 (Aldh1a3), STRA6 mRNA levels", "experimental": "as §1"}, "[4]": {"biological_target": "mALDH1a2 (Mus musculus (Mouse), UniProt Q62148)", "sequence (Q62148 whole entry)": "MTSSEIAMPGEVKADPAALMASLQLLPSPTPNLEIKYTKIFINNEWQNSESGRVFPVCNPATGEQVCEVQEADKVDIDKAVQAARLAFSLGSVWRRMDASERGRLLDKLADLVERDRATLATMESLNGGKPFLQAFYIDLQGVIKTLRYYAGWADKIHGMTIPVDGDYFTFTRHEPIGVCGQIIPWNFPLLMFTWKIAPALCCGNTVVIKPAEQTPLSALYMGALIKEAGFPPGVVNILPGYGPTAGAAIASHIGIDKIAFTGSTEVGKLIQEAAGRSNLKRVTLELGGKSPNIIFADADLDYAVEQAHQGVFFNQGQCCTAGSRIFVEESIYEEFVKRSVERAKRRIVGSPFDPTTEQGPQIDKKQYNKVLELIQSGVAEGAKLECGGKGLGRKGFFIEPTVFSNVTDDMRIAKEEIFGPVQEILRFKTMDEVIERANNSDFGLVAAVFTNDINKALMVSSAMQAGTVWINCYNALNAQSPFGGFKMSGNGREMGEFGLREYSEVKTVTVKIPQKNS", "assay": "Aldh1a2 enzyme inhibition assay (recombinant enzyme, resorufin fluorescence)", "type": "biochemical", "text": "Recombinant enzyme and inhibitor added immediately before assay. Reaction rate measured by resorufin fluorescence."}, "[5]": {"test_system": "K-Ras, p53 −/− undifferentiated pleiomorphic sarcoma cell line allografts", "assay": "K-Ras, p53 -/- undifferentiated pleiomorphic sarcoma allograft study", "type": "in vivo, C57BL6 syngeneic mice", "details": "single agent, 20 days; Compound 140 40 mg/kg intraperitoneal, MBE1.5 25 mg/kg daily equivalent in diet", "experimental": "In another allograft study, K-Ras, p53 −/− undifferentiated pleiomorphic sarcoma cell line allografts were implanted subcutaneously into C57BL6 syngeneic mice. […] Tumor volume were measured on day 14, 17, and 24 post inoculation for each group, and tumor mass were measured at the end of the study."}, "[6]": {"test_system": "T3-MCA fibrosarcoma cell line allografts", "assay": "T3-MCA fibrosarcoma allograft study", "type": "in vivo, C57BL6 syngeneic mice", "experimental": "In one allograft study, T3-MCA fibrosarcoma cell line allografts were implanted subcutaneously into C57BL6 syngeneic mice. […] Tumor volume were measured on day 8, 14, and 17 post inoculation for each group, and tumor mass were measured at the end of the study.\nIn another allograft study, T3-MCA fibrosarcoma cell line allografts were implanted subcutaneously into C57BL6 syngeneic mice."}, "[7]": {"test_system": "T3-MCA fibrosarcoma cell line allografts", "assay": "Combination with anti-PD-1 in T3-MCA fibrosarcoma allografts", "type": "in vivo, C57BL6 syngeneic mice", "details": "for tumor growth as a single agent: 40 mg/kg daily equivalent, oral medicated diet, Day 9 to Day 25", "experimental": "T3-MCA fibrosarcoma cell line allografts were implanted subcutaneously into C57BL6 syngeneic mice. […] Medicated diet was initiated at Day 9 after mice were randomized and continued until termination at Day 25. Anti-PD-1 antibody was administered by intraperitoneal injection at Day 11, 14, 18 and 21 by a 200 uL injection of a 1 mg/mL solution in saline. Tumor volume were measured on day 14, 18, 22, and 25 post inoculation for each group."}, "[8]": {"test_system": "primary tumors and metastasis", "assay": "Mouse xenograft models, ALDH1a3 inhibitor in conjunction with paclitaxel", "type": "in vivo", "details": "with chemotherapy agent paclitaxel"}, "[9]": {"assay": "Pharmacokinetic profiling in mice"}, "[10]": {"details": "oral, 40 mg/kg once daily for twelve days"}},
  "note": "Several values for one entry are separate records, joined by “and”; a condition that tells them apart may be missing. Identical values can stand only once.",
  "data": [
    {"smiles": "CCc1cnccc1C(=O)Nc1cc(C)c2c(c1)CCC(=O)N2", "note": "[Compound 140, 3-ethyl-N-(8-methyl-2-oxo-3,4-dihydro-1H-quinolin-6-yl)pyridine-4-carboxamide]", "values": [
      {"measurement": "IC50", "setting": "[1]", "result": "27.6 nM and < 50 nM"},
      {"measurement": "IC50", "setting": "[2]", "result": 99, "unit": "nM"},
      {"measurement": "IC50", "setting": "[3]", "result": "6.97 nM and < 50 nM"},
      {"measurement": "IC50", "setting": "[4]", "result": 96, "unit": "nM"},
      {"measurement": "tumor growth (caliper measurement, tumor mass at endpoint)", "setting": "[5]", "result": "successful inhibition of tumor growth as a single agent"},
      {"measurement": "tolerability", "setting": "[6]; [10]", "result": "excellent tolerability"},
      {"measurement": "tumor growth", "setting": "[6]; [10]", "result": "successful inhibition of tumor growth"},
      {"measurement": "tumor growth (caliper measurement, tumor mass at endpoint)", "setting": "[6]; single agent, once daily for 9 days, Compound 140 40 mg/kg intraperitoneal, MBE1.5 25 mg/kg daily equivalent in diet", "result": "successful inhibition of tumor growth as a single agent"},
      {"measurement": "tumor growth, combined treatment with anti-PD-1 antibody", "setting": "[7]; 40 mg/kg daily equivalent oral medicated diet plus anti-PD-1 200 microgram i.p. Day 11, 14, 18, 21", "result": "synergy with anti-PD-1 antibody in causing tumor regression"},
      {"measurement": "tumor growth as a single agent", "setting": "[7]", "result": "successful inhibition of tumor growth as a single agent"},
      {"measurement": "tumor growth as a single agent", "setting": "[7]; listed as compound 140", "result": "inhibits tumor growth as a single agent"}
    ]},
    {"smiles": "CCc1cnccc1C(=O)Nc1cc2c(cc1F)NC(=O)CC2", "note": "[MBE1]", "values": [
      {"measurement": "IC50", "setting": "[1]", "result": 1670, "unit": "nM"},
      {"measurement": "efficacy in conjunction with paclitaxel", "setting": "[8]", "result": "effective in treating established metastatic diseases"},
      {"measurement": "IC50", "setting": "[3]", "result": 3.67, "unit": "nM"},
      {"measurement": "cage side observations, adverse reactions", "setting": "[9]; 0 hours to 24 hours post-dosing, mice", "result": "no adverse reactions"},
      {"measurement": "plasma half-life, IV bolus dosing", "setting": "[9]; male CD-1/C57BL/6 mice, 1 mg/kg intravenous", "result": 1.79, "unit": "h"},
      {"measurement": "plasma half-life, PO oral gavage dosing", "setting": "[9]; male CD-1/C57BL/6 mice, 10 mg/kg oral gavage", "result": 1.37, "unit": "h"},
      {"measurement": "oral bioavailability", "setting": "[9]; male CD-1/C57BL/6 mice, 10 mg/kg oral gavage, 1 mg/kg intravenous", "result": 88, "unit": "%"},
      {"measurement": "time plasma concentrations exceed 5-fold the IC50", "setting": "[9]; oral gavage (PO) and intravenous (IV) administration, n=3 mice per group", "result": "> 10", "unit": "h"}
    ]}
  ]
}
